In brackets after ≈: the same amount, converted by molar mass.

Experiment [1] has as its system Mycobacterium tuberculosis. Nature of the experiment: Antibacterial activity against Mycobacterium tuberculosis assessed as reduction in resistance generation frequency. Format: functional.
The subject of experiment [2] is Mycobacterium tuberculosis. Nature of the experiment: Antibacterial activity against Mycobacterium tuberculosis Erdman (TMCC 107) in Mtb infection C3HeB/FeJ mouse model assessed as reduction in resistance generation frequency administered for 8 weeks relative to control. Format: functional. On the set-up: scale not given: the % may be the effect or the level left.

Experiment [3] concerns Mycobacterium tuberculosis. The experiment in a line: Antibacterial activity against multidrug-resistant Mycobacterium tuberculosis clinical isolate assessed as inhibition of bacterial growth in presence of SMARt-420. Format: functional.
Experiment [4] concerns Mycobacterium tuberculosis. Nature of the experiment: Antibacterial activity against Mycobacterium tuberculosis Erdman (TMCC 107) assessed as reduction in resistance generation frequency. Type of experiment: functional.
Experiment [5] relates to Mycobacterium tuberculosis. The experiment in a line: Antibacterial activity against extensively drug-resistant Mycobacterium tuberculosis clinical isolate assessed as inhibition of bacterial growth in presence of SMARt-420. Format: functional.
In experiment [6] the test system is Mycobacterium tuberculosis. Nature of the experiment: Antibacterial activity against Ethionamide-resistant Mycobacterium tuberculosis Beijing strain in acute Mtb infection BALB/c mouse model assessed as reduction in log10 CFU in lungs at 50 mg/kg, po for 3 weeks in presence of Ethionamide. Type of experiment: functional.
For experiment [7], the system named is Mycobacterium tuberculosis. The experiment in a line: microbe, parasite or virus in culture.
Experiment [8] has as its system Mycobacterium tuberculosis. The experiment in a line: microbe, parasite or virus in culture. This is another data set of the same source.
The subject of experiment [9] is Mycobacterium tuberculosis. The experiment in a line: Antibacterial activity against EMB-resistant Mycobacterium tuberculosis assessed as inhibition of bacterial growth. Format: functional.

In the case of `Cc1ccn(C(C)c2nnc(Nc3ccn(Cc4c(F)cccc4Cl)n3)s2)n1` (stereo not drawn), the Activity in [1] is on record as 4 10^-8No_unit.
Same read-out and setting: next, `CCNC(=N)NC(=O)Nc1c(CC)cccc1CC`: over 1.5 log10CFU.
With `Cc1n[nH]c2ccc(NS(=O)(=O)CCCCF)cc12`, the Activity in experiment [1] is 6 10^-8No_unit.
For the compound `CCS(=O)(=O)N1N=Cc2ccc(Oc3ccc(C(F)(F)F)cc3/C=N/O)cc2B1O`, the Activity is 0.04% in [2] and 4 10^-7No_unit in experiment [4]. Further, the MIC in experiment [3] and in [5] was 0.15 µM throughout.
Regarding `O=C(CCC(F)(F)F)N1CCC2(CC1)CC(c1ccccc1)=NO2`, in [6], the Activity is on record as 4 log10CFU.
Take `CCc1cc(C(N)=S)ccn1` [ETHIONAMIDE]: the MIC in experiment [7] and in experiment [8] was 48 µM (≈ 7.98 µg/mL) in each case.
Turning to `NNC(=O)c1ccncc1` [ISONIAZID], the values for the Activity in [2] and in experiment [1] were 29% and 4 10^-5No_unit, respectively.
On to `CC(C)=CCC/C(C)=C/CNCCNC1C2CC3CC(C2)CC1C3` (stereo not drawn) [SQ109], for which, in experiment [9], the MIC was found to be 2.4 µM (≈ 0.793 µg/mL).

(Values after ChEMBL document CHEMBL5137025, “Tuberculosis Drug Discovery: Challenges and New Horizons” (J Med Chem, 2022).)
